Laboratory results published in paper PMC12587574, “Mass balance, pharmacokinetics, metabolism, and excretion of radiolabeled acoziborole, a potential novel treatment for human African trypanosomiasis, following single microtracer oral dose to humans” (Antimicrobial Agents and Chemotherapy, 2025).
“And” between values parts separate entries of the source, which are not always exact repeats. Identical values can stand only once.

How the values were obtained:
[1] = set-up: method as in PMID 21738803; conditions: oral, mice; cited from earlier work
[2] = tested on: MDCK-MDR1 cell monolayer; conditions: cited from earlier work
[3] = set-up: method as in PMID 21738803; conditions: liver sub-cellular fractions from rodents, dogs, cynomolgus monkeys, and humans; cited from earlier work
[4] = Urinary excretion / renal clearance of acoziborole and SCYX-3109 by LC-MS/MS; type: in vivo; conditions: male, human, urine and plasma; CumAe0–240h/AUC0–240h; mean ± SD; 960 mg single oral dose of acoziborole; read-out: renal clearance CLr0–240h (converted)
Method: Urine samples were collected before IP administration (single urine void) and then during intervals of 0–6, 6–12, 12–24, 24–48, 48–72, 72–96, 96–120, 120–168, 168–192, 192–216, and 216–240 h post-dose and for the additional 48-h collection period starting on Day 15 post-dose, that is, 336–384 h. Samples were acidified with citric acid to avoid acoziborole degradation and were refrigerated until the end of the block collection periods. The total weight and volume of urine were then recorded. At the end of each collection period, two aliquots of acidified urine (20 mL) were taken from the sample and stored in polypropylene tubes at −20°C until further analysis for total radioactivity. Two aliquots of 1 mL acidified urine were collected into tubes containing bovine serum albumin in aqueous solution (to avoid non-specific adsorption of acoziborole) and NaCl for acoziborole and SCYX-3109 assays. […]
SGS Belgium (Wavre, Belgium) performed the analysis to determine acoziborole and SCYX-3109 concentrations, using validated bioanalytical assays with liquid chromatography with tandem mass spectrometry (LC-MS/MS) with a Supelco Ascentis Express C8, 2.7 µm, 50 × 2.1 mm I.D. separation column. In plasma, the lower limit of quantification (LLOQ) was 25 ng/mL for acoziborole and 10 ng/mL for SCYX-3109. […]

[5] = Total radioactivity in blood and plasma by accelerator mass spectrometry, phase I mass balance study; type: in vivo, human; conditions: 960 mg single oral dose
Method: Venous blood samples were collected via an indwelling cannula or by venepuncture. A 12 mL sample was taken into heparinized glass tube and chilled on ice immediately before IP administration and 3 mL samples were taken at 1, 4, 9, 12, 24, 48, 72, 96, 120, 144, 168, and 240 h and on Days 15, 31, 59, 89, and 119 after IP administration. The first 0.5 mL of blood withdrawn via cannula was discarded. One aliquot of heparinized whole blood (1 mL) per time point was stored at or below −20°C for total radioactivity analysis. The remaining blood was centrifuged, and the harvested plasma was stored at approximately −20°C for bioanalysis or transferred (exactly 1 mL) into polypropylene tubes pre-filled with 5 µL formic acid. One plasma sample (0.5 mL) was used for metabolite profiling while another (0.5 mL) was used for parent drug and SCYX-3109 metabolite analysis. The remaining plasma was used for total radioactivity analysis.
TNO (Leiden, the Netherlands) performed the analysis of total radioactivity and the metabolite profiling and identification. All blood, plasma, urine, and fecal homogenate samples were analyzed for total radioactivity by accelerator mass spectrometry (AMS). AMS analysis was performed on a 1 MV multi-element AMS, model 4110 Bo, high voltage engineering (software: AMS 155), using Australian National University (ANU) sucrose-8542 (C12H22O11) with a certified ^14C/^12C isotope ratio ([10]) as the system suitability test sample and [^14C]-paracetamol as an AMS quality check sample.
For each (diluted) sample, 5 µL blood, 5 µL plasma, 15 µL urine, or 30 mg fecal homogenate prepared in 1% CMC solution (1% CMC solution:feces ratio of 4:1) were transferred to tin foil cups. The samples were dried under a stream of nitrogen and subsequently placed in the elemental analyzer (EA, Vario Micro, Elementar, Germany), which acts as an autosampler and combustion device for the AMS. Single samples of blood, plasma, and urine were analyzed. Fecal homogenates were analyzed in triplicate, and the averaged value was reported. Total radioactivity in plasma and blood was expressed as ng equivalents (Eq) of acoziborole/mL. The LLOQ was 47.3 ngEq/mL in plasma (1.51 mBq/mL), 165.4 ngEq/mL in blood (5.28 mBq/mL), 33.8 ngEq/mL in urine (1.08 mBq/mL), and 87.1 ngEq/mL in feces (2.78 mBq/mL).
Blood-to-plasma ratio was calculated based on Cmax and AUC values. For total radioactivity excreted in urine, feces, and both combined, the following parameters were calculated: total amount of total radioactivity excreted over the time interval between t1 and t2 (Aet1−t2), Aet1−t2 expressed as a percentage of the radioactive dose administered (%Aet1−t2), CumAe, and Cum%Ae. For CumAe calculation, the recovery of total radioactivity during WinNonlin time intervals in which urine and feces were not collected was estimated using the area under the excretion rate-time curve from the end of the preceding collection interval to the start of the subsequent collection interval.

[6] = tested on: T.b. gambiense; set-up: method as in PMID 21738803; conditions: oral 5–25 mg/kg/day; acute and chronic infection; cited from earlier work
[7] = N = 6, mean ± SD, listed as [^14C]-acoziborole

SMILES: CC1(C)OB(O)c2cc(NC(=O)c3ccc(F)cc3C(F)(F)F)ccc21 [acoziborole]
- absolute bioavailability [1]: 55%
- apparent permeability [2]: 77.6 ×10⁻⁶ cm/s
- metabolic stability [3]: metabolically stable
- CL renal [4]: 0.0333 mL/min
- mean whole blood to plasma total radioactivity ratios (Cmax and AUC0–240h), interpretation [5]: no affinity for blood cells
- median tmax, total radioactivity in plasma ([5]; N = 6): 48 h
- AUC0–240h, total radioactivity, whole blood ([5]; N = 6, mean ± SD): 2,250.737 ± 182.816 µg-eq*h/mL
- AUC0–t, total radioactivity, plasma ([5]; N = 6, mean ± SD): 5,403.286 ± 1,561.755 µg-eq*h/mL
- AUC0–t, total radioactivity, whole blood ([5]; N = 6, mean ± SD): 3,556.202 ± 3,236.208 µg-eq*h/mL
- AUC0–∞, total radioactivity, plasma ([5]; N = 6, mean ± SD): 5,785.324 ± 1,105.726 µg-eq*h/mL
- AUC0–∞, total radioactivity, whole blood ([5]; N = 6, mean ± SD): 5,382.336 ± 2,473.408 µg-eq*h/mL
- tmax, total radioactivity, plasma ([5]; N = 6, mean ± SD): 56.0 ± 12.4 h
- tmax, total radioactivity, whole blood ([5]; N = 6, mean ± SD): 68.1 ± 9.9 h
- AUC0–240h, total radioactivity, plasma [5, 7]: 2,371.786 ± 255.572 µg-eq*h/mL
- t1/2, total radioactivity, plasma [5, 7]: 278.3 h and 278 h and 278.3 ± 47.4 h
- t1/2, total radioactivity, whole blood [5, 7]: 239.2 h and 239.2 ± 65.7 h
- Cmax, total radioactivity, whole blood ([5]; healthy males, N = 6, mean ± SD): 12.052 ± 1.129 µg-eq/mL
- Cmax, total radioactivity, plasma ([5]; healthy males, N = 6, mean ± SD, listed as [^14C]-acoziborole): 13.13 µg-eq/mL and 13.130 ± 1.776 µg-eq/mL
- mean whole blood to plasma total radioactivity ratios (Cmax and AUC0–240h), interpretation ([5]; listed as [^14C]-acoziborole): equivalent distribution between blood cells and plasma
- effect on survival of infected mice [6]: significantly prolong survival
- outcome of oral treatment in infected mice [6]: curative
